Laboratory results taken from US20240270736A1, “MACROCYCLIC HETEROCYCLES AND USES THEREOF” (Kumquat Biosciences Inc., priority 2022, published 2024).

Tests used:
Assay type in all cases: binding
KRAS G12D = target: T1, KRAS G12D (Homo sapiens, UniProt P01116, G12D); assay: HTRF assay, interaction of KRAS G12D with SOS1; settings: Ras::SOS1 interaction, read-out: Inhibition of KRAS G12D (IC50)
T1 construct: made in house; host or cells: E. coli, e.g. BL21 (DE3)
Source text: (§1) This assay can be also used to assess a selective inhibition or reduction of signaling output of a mutant Ras protein relative to a wildtype, or relative to a different mutant Ras protein. For example, the equilibrium interaction of wildtype Kras or K-Ras mutant (e.g., wildtype or a mutant thereof) with SOS1 (e.g., hSOS1) can be assessed as a proxy or an indication for a subject compound's ability to bind and inhibit Ras protein. The HTRF assay detects from (i) a fluorescence resonance energy transfer (FRET) donor (e.g., antiGST-Europium) that is bound to GST-tagged K-Ras mutant to (ii) a FRET acceptor (e.g., anti-6His-XL665) bound to a His-tagged hSOS1.
(§2) The assay buffer can contain ˜5 mM HEPES pH 7.4, ˜150 mM NaCl, ˜ 1 mM DTT, 0.05% BSA and 0.0025% (v/v) Igepal. A Ras working solution is prepared in an assay buffer containing typically a suitable amount of the protein construct (e.g., GST-tagged K-Ras mutant) and the FRET donor (e.g., antiGST-Eu(K) from Cisbio, France). A SOS1 working solution is prepared in an assay buffer containing suitable amount of the protein construct (e.g., His-hSOS1) and the FRET acceptor (e.g., anti-6His-XL665 from Cisbio, France). A suitable amount of the protein construct will depend on the range of activity or range of IC50 values being detected or under investigation. For detecting an IC50 within a range of 500 nM, the protein constructs of the same range of molarity can be utilized.
(§3) A fixed volume of DMSO with or without test compound is transferred into a 384-well plate. Ras working solution is added to all wells of the test plate. SOS1 working solution is added to all wells except for those that are subsequently filled with inhibitor control solution. Upon incubation for about 10 minutes or longer, the fluorescence is measured with a M1000Pro plate reader (Tecan) using HTRF detection (excitation 337 nm, emission 1: 620 nm, emission 2: 665 nm). Compounds are tested in duplicate at different concentrations (for example, 10 μM, 2.5 μM, 0.63 μM, 0.16 μM, 0.04 μM, 0.01 μM test compound). The ratiometric data (i.e., emission 2 divided by emission 1) is used to calculate IC50 values against Ras using GraphPad Prism (GraphPad software). Signaling output measured in terms of IC50 values can be obtained and a ratio of IC50 against one mutant relative to another mutant can be calculated. For instance, a selective reduction of K-Ras G12D signaling output can be evidenced by a ratio greater than one. In particular, a selective reduction of K-Ras G12D signaling relative to K-Ras WT signaling is evidenced if the ratio of IC50 (against K-Ras WT) to IC50 (against K-Ras G12D) is greater than 1.

wildtype KRAS = target: T2, wildtype KRAS (Homo sapiens, UniProt P01116); assay: HTRF assay, interaction of wildtype KRAS with SOS1; settings: Ras::SOS1 interaction, read-out: Inhibition of KRAS WT (IC50)
T2 construct: made in house; host or cells: E. coli, e.g. BL21 (DE3)
Source text: as §1, §2, §3

KRAS G12V = target: T3, KRAS G12V (Homo sapiens, UniProt P01116, G12V); assay: HTRF assay, interaction of KRAS G12V with SOS1; settings: Ras::SOS1 interaction, read-out: Inhibition of KRAS G12V (IC50)
T3 construct: made in house; host or cells: E. coli, e.g. BL21 (DE3)
Source text: as §1, §2, §3

Measured: IC50

T3 sequence (P01116 1-188 isoform P01116-2 G12V): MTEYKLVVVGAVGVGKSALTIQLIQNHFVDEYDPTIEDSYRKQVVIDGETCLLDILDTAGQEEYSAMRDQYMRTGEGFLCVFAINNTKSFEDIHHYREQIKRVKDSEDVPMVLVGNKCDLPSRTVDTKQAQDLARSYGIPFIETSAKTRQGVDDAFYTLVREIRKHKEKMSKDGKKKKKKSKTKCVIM
T2 sequence (P01116 1-188 isoform P01116-2): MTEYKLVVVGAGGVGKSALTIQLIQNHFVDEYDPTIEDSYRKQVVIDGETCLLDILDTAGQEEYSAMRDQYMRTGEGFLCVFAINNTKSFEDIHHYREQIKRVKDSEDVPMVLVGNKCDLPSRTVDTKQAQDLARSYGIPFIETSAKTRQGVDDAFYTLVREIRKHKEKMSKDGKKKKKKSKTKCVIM
T1 sequence (P01116 1-188 isoform P01116-2 G12D): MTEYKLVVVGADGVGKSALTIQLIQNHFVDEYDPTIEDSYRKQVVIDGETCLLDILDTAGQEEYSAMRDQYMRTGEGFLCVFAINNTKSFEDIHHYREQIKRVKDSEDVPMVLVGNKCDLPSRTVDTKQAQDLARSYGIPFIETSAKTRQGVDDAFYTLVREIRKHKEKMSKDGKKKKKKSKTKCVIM

CN(C)CC1CNC(=O)CCN2CCOc3c(Cl)c(-c4ccc(F)c5sc(N)c(C#N)c45)c(F)c4nc(nc2c34)O1 (stereo not drawn) [Compound 128, 2-amino-4-(14-chloro-4-((dimethylamino)methyl)-16-fluoro-7-oxo-4,5,6,7,8,9,11,12-octahydro-2,17-(azeno)benzo[6,7][1,4]oxazepino[5,4-d][1]oxa[3,5,9]triazacycloundecin-15-yl)-7-fluorobenzo[b]thiophene-3-carbonitrile]
≤ 5 µM: all assays above

CNCCC1CC=CCCN2CCOc3c(Cl)c(-c4ccc(F)c5sc(N)c(C#N)c45)c(F)c4nc(nc2c34)O1 (stereo not drawn) [Compound 130, 2-amino-4-(14-chloro-16-fluoro-4-(2-(methylamino)ethyl)-4,5,8,9,11,12-hexahydro-2,17-(azeno)benzo[6,7][1,4]oxazepino[5,4-d][1]oxa[3,5]diazacycloundecin-15-yl)-7-fluorobenzo[b]thiophene-3-carbonitrile]
≤ 5 µM: all assays above

CNCC1CCCCCN2CCOc3c(Cl)c(-c4ccc(F)c5sc(N)c(C#N)c45)c(F)c4nc(nc2c34)O1 (stereo not drawn) [Compound 133, 2-amino-4-(14-chloro-16-fluoro-4-((methylamino)methyl)-4,5,6,7,8,9,11,12-octahydro-2,17-(azeno)benzo[6,7][1,4]oxazepino[5,4-d][1]oxa[3,5]diazacycloundecin-15-yl)-7-fluorobenzo[b]thiophene-3-carbonitrile]
≤ 5 µM: all assays above

CN1CCC[C@H]1C1CCCCCCN2CCOc3c(Cl)c(-c4ccc(F)c5sc(N)c(C#N)c45)c(F)c4nc(nc2c34)O1 (stereo partly drawn) [Compound 138, 2-amino-4-(15-chloro-17-fluoro-4-((S)-1-methylpyrrolidin-2-yl)-5,6,7,8,9,10,12,13-octahydro-4H-2,18-(azeno)benzo[6,7][1,4]oxazepino[5,4-d][1]oxa[3,5]diazacyclododecin-16-yl)-7-fluorobenzo[b]thiophene-3-carbonitrile]
≤ 5 µM: all assays above

CNCC1C/C=C\CCN2CCOc3c(Cl)c(-c4ccc(F)c5sc(N)c(C#N)c45)c(F)c4nc(nc2c34)O1 (stereo not drawn) [Compound 141, (Z)-2-amino-4-(14-chloro-16-fluoro-4-((methylamino)methyl)-4,5,8,9,11,12-hexahydro-2,17-(azeno)benzo[6,7][1,4]oxazepino[5,4-d][1]oxa[3,5]diazacycloundecin-15-yl)-7-fluorobenzo[b]thiophene-3-carbonitrile]
≤ 5 µM: all assays above

CN1CCCOc2nc3c4c(c(Cl)c(-c5ccc(F)c6sc(N)c(C#N)c56)c(F)c4n2)OCCN3CCC1 [Compound 143, 2-amino-4-(15-chloro-17-fluoro-7-methyl-5,6,7,8,9,10,12,13-octahydro-4H-2,18-(azeno)benzo[6,7][1,4]oxazepino[5,4-d][1]oxa[3,5,9]triazacyclododecin-16-yl)-7-fluorobenzo[b]thiophene-3-carbonitrile]
≤ 5 µM: all assays above

CN(C)CC1CNC(=O)CN2CCOc3c(Cl)c(-c4ccc(F)c5sc(N)c(C#N)c45)c(F)c4nc(nc2c34)OC1 (stereo not drawn) [Compound 145, 2-amino-4-(14-chloro-5-((dimethylamino)methyl)-16-fluoro-8-oxo-4,5,6,7,8,9,11,12-octahydro-2,17-(azeno)benzo[6,7][1,4]oxazepino[5,4-d][1]oxa[3,5,8]triazacycloundecin-15-yl)-7-fluorobenzo[b]thiophene-3-carbonitrile]
≤ 5 µM: all assays above
